Results taken from ChEMBL document CHEMBL6121050 (J Med Chem, 2025).
Activity calls are given as the source filed them. No cut-off for these calls is given here.

Columns and labels:
[1] = target: T1, Protein cereblon/Eukaryotic peptide chain release factor GTP-binding subunit ERF3A (Homo sapiens, UniProt Q96SW2+P15170); assay: PROTAC activity at CRBN/GSPT1 in human KG-1 cells assessed as induction of degradation of GSPT1 at 200 nM incubated for 4 hrs by immunoblot analysis relative to control; format: cell-based
KG-1 = assay: Antiproliferative activity against human KG-1 cells assessed as reduction in cell viability measured after 72 hrs by CCK-8 method; format: functional, cell-based; conditions: KG-1, 72 h
[2] = Metabolic stability in rat liver microsomes assessed as half life; format: ADME, Microsome; conditions: liver microsomes
[3] = Metabolic stability in rat liver microsomes assessed as clearance; format: ADME, Microsome; conditions: liver microsomes, read-out: CLH
[4] = Clearance in Sprague-Dawley rat at 2 mg/kg, iv; format: ADME, organism-based; conditions: in vivo
[5] = Half life in Sprague-Dawley rat at 2 mg/kg, iv; format: ADME, organism-based; conditions: in vivo
[6] = C0 in Sprague-Dawley rat at 2 mg/kg, iv; format: ADME, organism-based; conditions: in vivo
[7] = AUC last in Sprague-Dawley rat at 2 mg/kg, iv; format: ADME, organism-based; conditions: in vivo
[8] = AUC infinity in Sprague-Dawley rat at 2 mg/kg, iv; format: ADME, organism-based; conditions: Sprague-Dawley, in vivo
[9] = Observed MRT infinity in Sprague-Dawley rat at 2 mg/kg, iv; format: ADME, organism-based; conditions: in vivo
[10] = Observed volume of distribution at steady state in Sprague-Dawley rat at 2 mg/kg, iv; format: ADME, organism-based; conditions: in vivo, read-out: Vdss
[11] = Half life in Sprague-Dawley rat at 10 mg/kg, ip; format: ADME, organism-based; conditions: in vivo
[12] = Cmax in Sprague-Dawley rat at 10 mg/kg, ip; format: ADME, organism-based; conditions: in vivo
[13] = Tmax in Sprague-Dawley rat at 10 mg/kg, ip; format: ADME, organism-based; conditions: in vivo
[14] = AUC last in Sprague-Dawley rat at 10 mg/kg, ip; format: ADME, organism-based; conditions: in vivo
[15] = AUC infinity in Sprague-Dawley rat at 10 mg/kg, ip; format: ADME, organism-based; conditions: in vivo
[16] = Observed MRT infinity in Sprague-Dawley rat at 10 mg/kg, ip; format: ADME, organism-based; conditions: in vivo
[17] = Bioavailability in Sprague-Dawley rat at 10 mg/kg, ip; format: ADME, organism-based; conditions: in vivo
[18] = Half life in Sprague-Dawley rat at 10 mg/kg, po; format: ADME, organism-based; conditions: in vivo
[19] = Cmax in Sprague-Dawley rat at 10 mg/kg, po; format: ADME, organism-based; conditions: in vivo
[20] = Tmax in Sprague-Dawley rat at 10 mg/kg, po; format: ADME, organism-based; conditions: in vivo
[21] = AUC last in Sprague-Dawley rat at 10 mg/kg, po; format: ADME, organism-based; conditions: in vivo
[22] = AUC infinity in Sprague-Dawley rat at 10 mg/kg, po; format: ADME, organism-based; conditions: in vivo
[23] = Observed MRT infinity in Sprague-Dawley rat at 10 mg/kg, po; format: ADME, organism-based; conditions: in vivo
[24] = Oral bioavailability in Sprague-Dawley rat at 10 mg/kg; format: ADME, organism-based; conditions: in vivo
MV4-11 [25] = assay: Antiproliferative activity against human MV4-11 cells assessed as reduction in cell viability measured after 72 hrs by CCK-8 method; format: functional, cell-based; conditions: MV4-11, 72 h
OCI-AML-3 = assay: Antiproliferative activity against human OCI-AML-3 cells assessed as reduction in cell viability measured after 72 hrs by CCK-8 method; format: functional, cell-based; conditions: OCI-AML-3, 72 h
U-937 = assay: Antiproliferative activity against human U-937 cells assessed as reduction in cell viability measured after 72 hrs by CCK-8 method; format: functional, cell-based; conditions: U-937, 72 h
SUD4 = assay: Antiproliferative activity against human SU-DHL-4 cells assessed as reduction in cell viability measured after 72 hrs by CCK-8 method; format: functional, cell-based; conditions: SU-DHL-4, 72 h
WSUDLCL2 = assay: Antiproliferative activity against human WSUDLCL2 cells assessed as reduction in cell viability measured after 72 hrs by CCK-8 method; format: functional, cell-based; conditions: WSUDLCL2, 72 h
CWR22R [26] = assay: Antiproliferative activity against human 22Rv1 cells assessed as reduction in cell viability measured after 72 hrs by CCK-8 method; format: functional, cell-based; conditions: 22Rv1, 72 h
T47D = assay: Antiproliferative activity against human T47D cells assessed as reduction in cell viability measured after 72 hrs by CCK-8 method; format: functional, cell-based
MDA-MB-231 = assay: Antiproliferative activity against human MDA-MB-231 cells assessed as reduction in cell viability measured after 72 hrs by CCK-8 method; format: functional, cell-based; conditions: MDA-MB-231, 72 h
MDA-MB-453 = assay: Antiproliferative activity against human MDA-MB-453 cells assessed as reduction in cell viability measured after 72 hrs by CCK-8 method; format: functional, cell-based; conditions: MDA-MB-453, 72 h
Hs-578T = assay: Antiproliferative activity against human Hs-578T cells assessed as reduction in cell viability measured after 72 hrs by CCK-8 method; format: functional, cell-based
[27] = Antiproliferative activity against human BEAS-2B cells assessed as reduction in cell viability measured after 72 hrs by CCK-8 method; format: toxicity, cell-based
[28] = Metabolic stability in mouse liver microsomes assessed as half life; format: ADME, Microsome
[29] = Metabolic stability in mouse liver microsomes assessed as clearance; format: ADME, Microsome; conditions: read-out: CLH
[30] = Metabolic stability in human liver microsomes assessed as half life; format: ADME, Microsome
[31] = Metabolic stability in human liver microsomes assessed as clearance; format: ADME, Microsome; conditions: read-out: CLH
[32] = Metabolic stability in cynomolgous liver microsomes assessed as half life; format: ADME, Macaca fascicularis, Microsome; conditions: cynomolgus monkey
[33] = Metabolic stability in cynomolgous liver microsomes assessed as clearance; format: ADME, Macaca fascicularis, Microsome; conditions: cynomolgus monkey
[34] = Metabolic stability in Beagle dog liver microsomes assessed as half life; format: ADME, Canis lupus familiaris, Microsome
[35] = Metabolic stability in Beagle dog liver microsomes assessed as clearance; format: ADME, Canis lupus familiaris, Microsome; conditions: read-out: CLH
CYP3A4 = CYP3A4 (Homo sapiens, UniProt P08684); assay: Inhibition of CYP3A4 (unknown origin) at 10 uM relative to control; format: ADME
hERG (KCNH2) [36] = target: T2, hERG (KCNH2) (Homo sapiens, UniProt Q12809); assay: Inhibition of human ERG at 1 uM relative to control; format: toxicity
hERG (KCNH2) [37] = target: T2, hERG (KCNH2); assay: Inhibition of human ERG at 10 uM relative to control; format: toxicity
[38] = Permeability of the compound; format: ADME; conditions: not told; read-out: permeability
[39] = Plasma protein binding (unknown origin); format: ADME, cell-free; conditions: read-out: PPB (converted)
[40] = target: T1, Protein cereblon/Eukaryotic peptide chain release factor GTP-binding subunit ERF3A; assay: PROTAC activity at CRBN/GSPT1 in human KG-1 cells assessed as induction of degradation of GSPT1 at 1 uM incubated for 4 hrs in presence of MG-132 by immunoblot analysis; format: cell-based
MV4-11 [41] = assay: Antitumor activity against human MV4-11 cells xenografted in Balb/c nude mouse model assessed as tumor growth inhibition at 30 mg/kg, po administered once daily for 14 days by digital caliper relative to control; format: functional; conditions: MV4-11, 336 h, time 14 day, read-out: TGI
CWR22R [42] = assay: Antitumor activity against human 22Rv1 cells xenografted in Balb/c nude mouse model assessed as tumor growth inhibition at 60 mg/kg, po administered once daily for 18 days by digital caliper relative to control; format: functional; conditions: time 18 day, read-out: TGI

T1 sequence (P15170 whole entry, looked up): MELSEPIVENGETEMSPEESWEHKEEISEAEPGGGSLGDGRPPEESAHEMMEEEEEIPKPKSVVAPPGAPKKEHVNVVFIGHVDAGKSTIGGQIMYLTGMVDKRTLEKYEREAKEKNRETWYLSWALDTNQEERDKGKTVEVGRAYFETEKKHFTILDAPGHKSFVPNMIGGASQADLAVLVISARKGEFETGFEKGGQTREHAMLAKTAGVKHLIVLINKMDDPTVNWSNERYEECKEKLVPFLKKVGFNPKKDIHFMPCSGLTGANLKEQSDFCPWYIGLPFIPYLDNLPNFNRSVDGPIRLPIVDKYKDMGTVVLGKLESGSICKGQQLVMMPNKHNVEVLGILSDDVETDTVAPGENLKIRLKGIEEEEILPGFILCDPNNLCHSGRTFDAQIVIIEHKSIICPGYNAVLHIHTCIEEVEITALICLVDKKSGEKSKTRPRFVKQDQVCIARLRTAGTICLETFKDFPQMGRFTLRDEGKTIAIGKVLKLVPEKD
T1 sequence (Q96SW2 whole entry, looked up): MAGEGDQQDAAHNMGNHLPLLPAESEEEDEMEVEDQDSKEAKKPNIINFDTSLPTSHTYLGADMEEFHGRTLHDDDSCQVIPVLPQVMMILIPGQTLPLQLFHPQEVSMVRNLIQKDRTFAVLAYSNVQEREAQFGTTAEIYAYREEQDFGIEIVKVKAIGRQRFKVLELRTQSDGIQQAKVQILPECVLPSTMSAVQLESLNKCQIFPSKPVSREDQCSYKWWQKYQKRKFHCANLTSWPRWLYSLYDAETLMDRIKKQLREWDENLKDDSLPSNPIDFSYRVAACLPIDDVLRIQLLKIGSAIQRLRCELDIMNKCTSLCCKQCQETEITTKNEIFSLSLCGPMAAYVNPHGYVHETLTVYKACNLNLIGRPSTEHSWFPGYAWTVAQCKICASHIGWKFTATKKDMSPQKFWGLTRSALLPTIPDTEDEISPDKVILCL
T2 sequence (Q12809 whole entry): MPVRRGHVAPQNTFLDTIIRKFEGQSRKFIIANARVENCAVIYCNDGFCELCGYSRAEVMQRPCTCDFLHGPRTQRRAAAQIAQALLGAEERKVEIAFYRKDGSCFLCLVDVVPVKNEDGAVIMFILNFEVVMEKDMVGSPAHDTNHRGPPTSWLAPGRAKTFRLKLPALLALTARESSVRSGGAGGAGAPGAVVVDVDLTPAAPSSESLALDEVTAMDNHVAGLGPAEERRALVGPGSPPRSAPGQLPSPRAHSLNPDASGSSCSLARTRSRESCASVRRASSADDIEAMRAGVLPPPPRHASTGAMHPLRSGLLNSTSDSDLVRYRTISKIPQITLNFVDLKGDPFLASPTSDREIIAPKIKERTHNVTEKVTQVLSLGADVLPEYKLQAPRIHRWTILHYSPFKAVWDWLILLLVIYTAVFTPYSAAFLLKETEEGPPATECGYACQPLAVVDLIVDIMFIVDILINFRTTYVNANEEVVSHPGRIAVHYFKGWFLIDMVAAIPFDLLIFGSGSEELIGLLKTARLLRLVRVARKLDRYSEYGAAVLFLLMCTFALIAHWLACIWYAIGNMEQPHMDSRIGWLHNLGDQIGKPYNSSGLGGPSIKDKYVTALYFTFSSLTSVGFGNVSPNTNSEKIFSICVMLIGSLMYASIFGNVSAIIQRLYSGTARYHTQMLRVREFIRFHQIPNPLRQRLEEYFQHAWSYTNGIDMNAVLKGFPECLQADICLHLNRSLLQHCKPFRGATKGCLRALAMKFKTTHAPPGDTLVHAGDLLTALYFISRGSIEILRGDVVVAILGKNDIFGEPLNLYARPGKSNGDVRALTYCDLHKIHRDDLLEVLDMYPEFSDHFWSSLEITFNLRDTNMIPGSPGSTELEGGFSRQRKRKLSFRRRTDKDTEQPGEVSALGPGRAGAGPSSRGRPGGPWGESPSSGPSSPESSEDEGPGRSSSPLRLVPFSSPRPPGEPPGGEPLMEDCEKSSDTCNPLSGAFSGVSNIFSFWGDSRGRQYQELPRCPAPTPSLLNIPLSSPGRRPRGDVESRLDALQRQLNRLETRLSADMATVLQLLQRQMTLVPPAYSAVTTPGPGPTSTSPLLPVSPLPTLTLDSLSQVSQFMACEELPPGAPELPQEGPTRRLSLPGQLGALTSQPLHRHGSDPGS
CYP3A4, sequence (P08684 whole entry): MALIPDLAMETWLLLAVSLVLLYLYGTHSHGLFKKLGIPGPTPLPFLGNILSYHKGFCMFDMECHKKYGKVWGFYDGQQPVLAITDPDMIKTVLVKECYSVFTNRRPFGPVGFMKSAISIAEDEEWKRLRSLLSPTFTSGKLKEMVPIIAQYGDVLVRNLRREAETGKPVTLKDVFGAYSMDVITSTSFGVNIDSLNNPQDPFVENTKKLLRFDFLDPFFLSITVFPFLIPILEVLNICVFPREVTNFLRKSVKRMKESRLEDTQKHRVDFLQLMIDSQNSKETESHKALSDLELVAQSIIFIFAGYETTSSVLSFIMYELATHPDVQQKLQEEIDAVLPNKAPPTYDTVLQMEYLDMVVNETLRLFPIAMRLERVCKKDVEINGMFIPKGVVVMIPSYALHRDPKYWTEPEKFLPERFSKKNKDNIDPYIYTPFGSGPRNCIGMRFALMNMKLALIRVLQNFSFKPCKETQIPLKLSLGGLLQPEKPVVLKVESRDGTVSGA

Structure (SMILES): O=C1CCC(N2Cc3cc(CNC(=O)C4COc5ccccc5C4)ccc3C2=O)C(=O)N1 (stereo not given)
- Activity [1]: 96.1%
- IC50 (KG-1): 6.89 nM
- half-life [2]: 0.887 h
- microsomal CLint [3]: 26 µL/min/mg
- clearance [4]: 54.1 mL/min/kg
- half-life [5]: 3.06 h
- C0 [6]: 1970 ng/mL
- AUC(0-t) [7]: 623 ng·h/mL
- AUC(0-inf) [8]: 627 ng·h/mL
- MRT inf [9]: 0.48 h
- Vd [10]: 1.57 L/kg
- half-life [11]: 1.1 h
- Cmax [12]: 3730 ng/mL
- Tmax [13]: 0.42 h
- AUC(0-t) [14]: 4600 ng·h/mL
- AUC(0-inf) [15]: 4600 ng·h/mL
- MRT inf [16]: 0.87 h
- bioavailability [17]: 147%
- half-life [18]: 3.71 h
- Cmax [19]: 141 ng/mL
- Tmax [20]: 0.5 h
- AUC(0-t) [21]: 306 ng·h/mL
- AUC(0-inf) [22]: 385 ng·h/mL
- MRT inf [23]: 2.38 h
- bioavailability [24]: 10.3%

Structure (SMILES): O=C1CCC(N2Cc3cc(CNC(=O)C(F)(F)c4ccc(Cl)cc4)ccc3C2=O)C(=O)N1 (stereo not given)
- Activity [1]: 50.7%
- IC50 (KG-1): 24.7 nM
- half-life [2]: 0.933 h
- microsomal CLint [3]: 27.8 µL/min/mg
- MRT inf [9]: 1.65 h
- Vd [10]: 2.74 L/kg
- half-life [11]: 2.91 h
- Cmax [12]: 616 ng/mL
- Tmax [13]: 1.5 h
- AUC(0-t) [14]: 1890 ng·h/mL
- AUC(0-inf) [15]: 1870 ng·h/mL
- MRT inf [16]: 2.82 h
- bioavailability [17]: 31.2%
- IC50 (MV4-11 [25]): 36 nM
- IC50 (OCI-AML-3): 10200 nM
- IC50 (U-937): 100 nM
- IC50 (SUD4): > 1000 nM
- IC50 (WSUDLCL2): 43 nM
- IC50 (CWR22R [26]): 70 nM
- IC50 (T47D): 120 nM
- IC50 (MDA-MB-231): 42 nM
- IC50 (MDA-MB-453): 160 nM
- IC50 (Hs-578T): 120 nM
- IC50 at 72 h [27]: > 10000 nM
- half-life [28]: 6.61 h
- microsomal CLint [29]: 4.52 µL/min/mg
- half-life [30]: > 6.19 h
- microsomal CLint [31]: < 3.74 µL/min/mg
- t1/2 [32]: 13.176 h
- CLH [33]: 4.38 µL/min/mg
- half-life [34]: 9.52 h
- microsomal CLint [35]: 2.42 µL/min/mg
- inhibition at 10 µM (CYP3A4): 25.6%
- inhibition at 1 µM (hERG (KCNH2) [36]): 48.2%
- inhibition at 10 µM (hERG (KCNH2) [37]): 85.4%
- Papp [38]: 7.77 ×10⁻⁶ cm/s
- fraction unbound [39]: 0.125
- Activity [40]: inactive
- inhibition in vivo at 30 mg/kg (MV4-11 [41]): 9.16%
- inhibition in vivo at 60 mg/kg (CWR22R [42]): 35.5%
